According to patent publication US20250034139A1, “AMINE COMPOUNDS HAVING ANTI-INFLAMMATORY, ANTIFUNGAL, ANTIPARASITIC, AND ANTICANCER ACTIVITY” (PHARMA CINQ, LLC, priority 2013, published 2025):
Converted amounts (≈) assume the structure as drawn. Counter-ions that a name gives are not always drawn.

Columns and labels:
[1] = tested on: PC-3 prostate cancer cells; assay: Example T: sensitisation of PC-3 cells to doxorubicin, oxaliplatin, paclitaxel or vincristine, Wst1; assay type: cell-based, human; details: PC-3 cells, 72 hours; for Doxorubicin 3.5 μM: percent cell survival / Oxaliplatin 100 μM: percent cell survival / Paclitaxel 50 μM: percent cell survival / Vincristine 100 nM: percent cell survival: chemotherapy agent alone normalized to 100%; for viability at 0.4 µM: compound 0.4 μM alone; for viability at 2.5 µM: compound 2.5 μM alone
[2] = tested on: 4T1 murine breast cancer cells; assay: Example S: in vitro anticancer screen, 4T1 cells, Wst1; assay type: cell-based, mouse; details: Mus musculus, 4T1, 18 h, 18 hr, Wst1; for viability at 1 µM: read-out: 4T1 1 μM, percent of cancer cell survival relative to vehicle treated cells; for viability at 5 µM: read-out: 4T1 5 μM, percent of cancer cell survival relative to vehicle treated cells
Summary of the method: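 4T1 cells seeded at 1×10^4/well were exposed to compound at 1 μM or 5 μM for 18 hr after plating. Wst1 tetrazolium dye was then added for about 2 hr and absorbance read at 450 nm (reference 630 nm). Values are percent survival relative to vehicle-treated cells.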

[3] = tested on: PC3 human prostate cancer cells; assay: Example S: in vitro anticancer screen, PC-3 cells, Wst1; assay type: cell-based; details: Homo sapiens, PC-3, approximately 20 hours, Wst1, read-out: PC-3, percent of cancer cell survival relative to vehicle treated cells
Summary of the method: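 PC-3 cells, 2×10^4 cells/well, exposed ~20 h to vehicle or compound at 0.4, 0.5 or 2.5 μM as specified per compound. Wst1 dye added for 2 h; absorbance 450 nm (reference 630 nm), triplicates. Values are percent cell survival versus vehicle-treated cells.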

THP-1 cells = assay: Example C: compound screen, viable THP-1 cell count after 5 hours +/- LPS; assay type: cell-based, Human; details: for ability to inactivate pro-inflammatory THP-1 cells, in words (relative to benchmark AC): LPS-treated THP-1 cells
Text: Background: THP-1 is a human acute myeloid leukemia (AML) cell line that can be induced into a macrophage-like cell with vitamin-D3 (vit-D3). In the macrophage, LPS (lipopolysaccharide; endotoxin) stimulation of toll-like receptor 4 (TLR-4) leads to NF-κB activation and secretion of inflammatory cytokines but also the priming of programmed death pathways through RIP and Caspase 8. The balance of this complex regulatory network is dependent on highly specific kinases, enzymes that require ATP. Disruption of either cytosolic pH or ATP availability/energy level uncouples this control network and the can macrophage shift away from production of inflammatory cytokines towards a programmed death event, which has the net effect of limiting inflammatory damage.

Trichophyton rubrum = assay: Example J: Trichophyton rubrum growth inhibition, scoring by eye; assay type: cell-based; details: Trichophyton rubrum, 144 h; 6 days at 30° C., tested 6 to 40 μM; read-out: MIC, μM (maximum inhibition concentration, scoring by eye)
Summary of the method: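 Filtered T. rubrum suspension from PDA plates (grown 4 days, 30 °C) treated with diluted compounds in triplicate, incubated 6 days at 30 °C. Plates imaged; MIC scored by eye.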

[4] = Homo sapiens, Wst1, vehicle = 100, read-out: No Chemo: percent cell survival
[5] = compound 0.4 μM + doxorubicin 3.5 μM
[6] = compound 0.4 μM + oxaliplatin 100 μM
[7] = compound 0.4 μM + paclitaxel 50 μM
[8] = compound 0.4 μM + vincristine 100 nM
[9] = compound 2.5 μM + doxorubicin 3.5 μM
[10] = compound 2.5 μM + oxaliplatin 100 μM
[11] = compound 2.5 μM + paclitaxel 50 μM
[12] = compound 2.5 μM + vincristine 100 nM

SMILES	MIC (Trichophyton rubrum) [µM]	viability at 1 µM [2] [%]	viability at 5 µM [2] [%]	viability at 0.4 µM [1, 4] [%]	Doxorubicin 3.5 μM: percent cell survival [1, 5] [%]	Oxaliplatin 100 μM: percent cell survival [1, 6] [%]	Paclitaxel 50 μM: percent cell survival [1, 7] [%]	Vincristine 100 nM: percent cell survival [1, 8] [%]	viability at 0.4 µM [3] [%]	also measured
CCCCCCOc1ccc(CNc2ccnc3ccccc23)cc1 [AA, N-[4-(Hexyloxy)benzyl]quinolin-4-amine]		69.1	31.2							viability at 1.5 µM ([1]; Homo sapiens, compound 1.5 μM alone, Wst1, vehicle = 100, read-out: No Chemo: percent cell survival): 82.6%; Doxorubicin 3.5 μM: percent cell survival ([1]; compound 1.5 μM + doxorubicin 3.5 μM): 38.6%; Oxaliplatin 100 μM: percent cell survival ([1]; compound 1.5 μM + oxaliplatin 100 μM): 31%; Paclitaxel 50 μM: percent cell survival ([1]; compound 1.5 μM + paclitaxel 50 μM): 22.2%; Vincristine 100 nM: percent cell survival ([1]; compound 1.5 μM + vincristine 100 nM): 43%; viability at 1.5 µM ([3]; 1.5 μM): 82.6%
CCCCCCOCCCCCCCCn1cnc2cnccc21 [AS, 1-[8-(Hexyloxy)octyl]-1H-imidazo[4,5-c]pyridine]	25 (≈ 8.29 µg/mL)	94.6	23.1							viability at 2.5 µM [1, 4]: 31.1%; Doxorubicin 3.5 μM: percent cell survival [1, 9]: 51.1%; Oxaliplatin 100 μM: percent cell survival [1, 10]: 55.5%; Paclitaxel 50 μM: percent cell survival [1, 11]: 36.8%; Vincristine 100 nM: percent cell survival [1, 12]: 30.8%; viability at 2.5 µM [3]: 31.1%
CCCCOCCCCCCCCCCn1cnc2cnccc21 [AT, 1-(10-Butoxydecyl)-1H-imidazo[4,5-c]pyridine]	6 (≈ 1.99 µg/mL)	31.7	18.7	34.6	65.4	76.8	57.4	32.9	34.6	
CCCCCCOCCCCCCCCNc1ccncn1 [AU, N-[8-(Hexyloxy)octyl]pyrimidin-4-amine]	12 (≈ 3.69 µg/mL)	93	23.2							viability at 2.5 µM [1, 4]: 32.4%; Doxorubicin 3.5 μM: percent cell survival [1, 9]: 25.7%; Oxaliplatin 100 μM: percent cell survival [1, 10]: 41.1%; Paclitaxel 50 μM: percent cell survival [1, 11]: 34.2%; Vincristine 100 nM: percent cell survival [1, 12]: 32%; viability at 2.5 µM [3]: 32.4%
CCCCCCOc1ccc(CNc2ccnc3ccccc23)cc1F [BK, N-[3-Fluoro-4-(hexyloxy)benzyl]quinolin-4-amine]				29.2	32.1	27.3	20.6	28.3	29.2	
c1ccc(Oc2cccc(CNc3ncnc4ccccc34)c2)cc1 [BM, N-(3-Phenoxybenzyl)quinazolin-4-amine]	18 (≈ 5.89 µg/mL)									Reduction in viable THP-1 cell count (percent change) from 0 hours, Mean ± SE (THP-1 cells; Compound (0.1 μM), No LPS): −3.96 ± 0.82%; Reduction in viable THP-1 cell count (percent change) from 0 hours, Mean ± SE (THP-1 cells; Compound (0.1 μM), Plus LPS): −25.80 ± 3.26%; Reduction in viable THP-1 cell count (percent change) from 0 hours, Mean ± SE (THP-1 cells; Compound (1.0 μM), No LPS): −4.18 ± 2.46%; Reduction in viable THP-1 cell count (percent change) from 0 hours, Mean ± SE (THP-1 cells; Compound (1.0 μM), Plus LPS): −39.17 ± 2.18%; ability to inactivate pro-inflammatory THP-1 cells, in words (relative to benchmark AC) (THP-1 cells): higher activity than the active benchmark compound AC
CCCCCCOCCCCCCCC[n+]1ccc(N)cc1 [BO, 4-Amino-1-[8-(hexyloxy)octyl]pyridinium salts]	> 40	20.7	18.6	13.4	82.4	28.4	28.2	18.4	13.4	

Continued, in another order:

MIC (Trichophyton rubrum) [µM]	SMILES	viability at 1 µM [2] [%]	viability at 5 µM [2] [%]	viability at 0.4 µM [1, 4] [%]	Doxorubicin 3.5 μM: percent cell survival [1, 5] [%]	Oxaliplatin 100 μM: percent cell survival [1, 6] [%]	Paclitaxel 50 μM: percent cell survival [1, 7] [%]	Vincristine 100 nM: percent cell survival [1, 8] [%]	viability at 0.4 µM [3] [%]	also measured
> 40	c1ccc(Oc2cccc(CNc3ccnc4ccccc34)c2)cc1 [AF, N-(3-Phenoxybenzyl)quinolin-4-amine]	24.7	25.6	19.1	35	32.4	25.2	22.6	19.1	Reduction in viable THP-1 cell count (percent change) from 0 hours, Mean ± SE (THP-1 cells; Compound (0.1 μM), No LPS): −8.99 ± 2.00%; Reduction in viable THP-1 cell count (percent change) from 0 hours, Mean ± SE (THP-1 cells; Compound (0.1 μM), Plus LPS): −27.32 ± 4.69%; Reduction in viable THP-1 cell count (percent change) from 0 hours, Mean ± SE (THP-1 cells; Compound (1.0 μM), No LPS): −6.02 ± 2.31%; Reduction in viable THP-1 cell count (percent change) from 0 hours, Mean ± SE (THP-1 cells; Compound (1.0 μM), Plus LPS): −44.82 ± 2.46%; ability to inactivate pro-inflammatory THP-1 cells, in words (relative to benchmark AC) (THP-1 cells): higher activity than the active benchmark compound AC
18 (≈ 6.04 µg/mL)	CCCCCCOc1cccc(CNc2ncnc3ccccc23)c1 [AK, N-[3-(Hexyloxy)benzyl]quinazolin-4-amine]									
25 (≈ 9.26 µg/mL)	CCCCCCOCCCCCCCCNc1cc(C)nc2ccccc12 [AV, N-[8-(Hexyloxy)octyl]-2-methylquinolin-4-amine]	136	30							viability at 2.5 µM [1, 4]: 38.2%; Doxorubicin 3.5 μM: percent cell survival [1, 9]: 62.6%; Oxaliplatin 100 μM: percent cell survival [1, 10]: 59.3%; Paclitaxel 50 μM: percent cell survival [1, 11]: 34.4%; Vincristine 100 nM: percent cell survival [1, 12]: 37.2%; viability at 2.5 µM [3]: 38.2%
18 (≈ 6.81 µg/mL)	CCCCCCOc1cccc(OCCCNc2ccnc3ccccc23)c1 [AZ, N-{3-[3-(Hexyloxy)phenoxy]propyl}quinolin-4-amine]	52.2	29.1	95.4	33.6	26.9	54.1	71.2	95.4	
12 (≈ 4.35 µg/mL)	Cc1cccc(OCCCCCCCCNc2ccnc3ccccc23)c1 [BE, N-[8-(m-Tolyloxy)octyl]quinolin-4-amine]	23.1	18.7	99.1	44.1	41.2	64	74.9	99.1	
18 (≈ 6.53 µg/mL)	Cc1ccc(OCCCCCCCCNc2ccnc3ccccc23)cc1 [BF, N-[8-(p-Tolyloxy)octyl]quinolin-4-amine]	17.2	19	92.8	40.9	37.2	57.1	74.1	92.8	
12 (≈ 4.35 µg/mL)	Cc1ccccc1OCCCCCCCCNc1ccnc2ccccc12 [BG, N-[8-(o-Tolyloxy)octyl]quinolin-4-amine]	17.4	17.8	99.1	40.1	36.2	59.2	71.1	99.1	
18 (≈ 6.6 µg/mL)	Fc1cccc(OCCCCCCCCNc2ccnc3ccccc23)c1 [BI, N-[8-(3-Fluorophenoxy)octyl]quinolin-4-amine]	30	17.3	111	76.6	84.3	71.7	81.7	111	
18 (≈ 6.6 µg/mL)	Fc1ccc(OCCCCCCCCNc2ccnc3ccccc23)cc1 [BJ, N-[8-(4-Fluorophenoxy)octyl]quinolin-4-amine]	16.9	31.3	23.9	56.8	64.1	50.2	50.8	23.9	
